Experimental data from article PMC10343686, “Integration of Hybridization Strategies in Pyridine–Urea Scaffolds for Novel Anticancer Agents: Design, Synthesis, and Mechanistic Insights” (Molecules, 2023).
Entries after “also recorded” stand apart in the source; their conditions may differ. Like-named read-outs stand apart in the source and are kept apart here.

What was measured:
MCF7 cancer cell line [1] = test: SRB assay of antiproliferative activity, MCF7; assay type: cell-based; conditions: for GI50: Homo sapiens, MCF7, SRB assay, 48 h, mean ± standard error (n = 3)
Experimental: (§1) Breast cancer cell line MCF7 and colorectal carcinoma cell line HCT116 were obtained from the National Cancer Institute (MTA Number: 2702-09). Cells were cultured in complete RPMI 1640 medium (Hyclone, Logan, UT, USA) containing 10% FBS (Hyclone, Logan, UT, USA) in an atmosphere of 5% CO 2/100% humidity at 37 °C. Each investigated compound was diluted using DMSO to make a stock solution. It was treated by mixing with cell culture medium (RPMI1640 containing 10% FBS (Hyclone, Logan, UT, USA)) so that the final concentration of the drug was 0.001, 0.01, 0.1, 1, or 10 uM. There was no compound precipitated upon treatment in the culture medium.
(§2) The SRB assay was performed following the methodology of previously published studies. In brief, the cells (100 μL medium containing 5000 HCT116 or 10,000 MCF7 cells/well) were incubated in 96-well microtiter plates. After 24 h, the drug was added (100 μL) to each well and the cultures were incubated for 48 h at 37 °C. The cells were fixed in 50% TCA (50 μL per well) for 1 h at 4 °C. The liquid was removed from the plate, which was then rinsed five times with water and allowed to dry at room temperature (RT). Washed cells were stained for 10 min at RT with 0.4% SRB (100 μL per well). After staining, the plate was washed 3 times with 1% glacial acetic acid and dried at RT. The SRB stain was then solubilized in 10 mM Tris and absorbances were read at 515 nm. The effect of the drugs was expressed in terms of the GI50 (the concentration resulting in 50% maximal inhibition of cell proliferation). […]

HCT116 cancer cell line = test: SRB assay of antiproliferative activity, HCT116; assay type: cell-based; conditions: Homo sapiens, HCT-116, 48 h, mean ± standard error (n = 3)
Experimental: as §1, §2

normal cell line HEK293 = test: SRB assay of antiproliferative activity on normal cells; assay type: cell-based; conditions: HEK293, 48 h, Figure 3
Experimental: The antiproliferative activity of compounds 8a, 8h, and 8i was evaluated in a sulforhodamine B (SRB) assay using normal cell line HEK293 cells. Cells were treated for 48 h under the same conditions used for the assessment of the antiproliferative activity on the cancer cells.

MCF7 cancer cell line [2] = test system: MCF7 cancer cell line; design: method as in PMID 35217379; conditions: cited from earlier work

SMILES	melting point [°C]	GI50 (MCF7 cancer cell line [1]) [µM]	GI50 (HCT116 cancer cell line) [µM]	cell growth inhibitory effect on normal cells (normal cell line HEK293)	potency compared to the positive control drug Irinotecan (MCF7 cancer cell line [1]; MCF7 cancer cell line, ratio of GI50 values) [fold]	GI50 (MCF7 cancer cell line [2]) [µM]
COc1n[nH]c2ccc(-c3ccnc(NC(=O)Nc4ccc(F)cc4)c3)cc12 [Compound 8c, 1-(4-Fluorophenyl)-3-(4-(3-methoxy-1H-indazol-5-yl)pyridin-2-yl)urea]	229 to 232	3.73 ± 0.075	1.22 ± 0.141	–	–	–
O=C(NCCc1ccccc1)Nc1cc(-c2ccc3cncnc3c2)ccn1 [Compound 4l, 1-Phenethyl-3-(4-(quinazolin-7-yl)pyridin-2-yl)urea]	260 to 263	9 ± 0.347	> 10	–	–	–
COc1n[nH]c2ccc(-c3ccnc(NC(=O)Nc4cccc(F)c4)c3)cc12 [Compound 8b, 1-(3-Fluorophenyl)-3-(4-(3-methoxy-1H-indazol-5-yl)pyridin-2-yl)urea]	229 to 232	> 10	> 10	–	–	–
O=C(Nc1ccccc1)Nc1cc(-c2ccc3cncnc3c2)ccn1 [Compound 4a, 1-Phenyl-3-(4-(quinazolin-7-yl)pyridin-2-yl)urea]	332 to 335	> 10	> 10	–	–	–
O=C(Nc1ccc(F)cc1)Nc1cc(-c2ccc3cncnc3c2)ccn1 [Compound 4c, 1-(4-Fluorophenyl)-3-(4-(quinazolin-7-yl)pyridin-2-yl)urea]	–	> 10	> 10	–	–	–
O=C(NCCc1ccc(F)cc1)Nc1cc(-c2ccc3cncnc3c2)ccn1 [Compound 4n, 1-(4-Fluorophenethyl)-3-(4-(quinazolin-7-yl)pyridin-2-yl)urea]	214 to 217	> 10	> 10	–	–	–
COc1ccc(NC(=O)Nc2cc(-c3ccc4[nH]nc(OC)c4c3)ccn2)cc1 [Compound 8e, 1-(4-(3-Methoxy-1H-indazol-5-yl)pyridin-2-yl)-3-(4-methoxyphenyl)urea]	240 to 242	4.37 ± 0.359	> 10	–	–	–
CCc1c2c(nc3ccc(OC(=O)N4CCC(N5CCCCC5)CC4)cc13)-c1cc3c(c(=O)n1C2)COC(=O)[C@]3(O)CC [Irinotecan, reference compound]	–	0.35 ± 0.069	0.62 ± 0.003	–	–	–
COc1cccc(NC(=O)Nc2cc(-c3ccc4[nH]nc(OC)c4c3)ccn2)c1 [Compound 8d, 1-(4-(3-Methoxy-1H-indazol-5-yl)pyridin-2-yl)-3-(3-methoxyphenyl)urea]	230 to 233	1.89 ± 0.26	> 10	–	–	–
O=C(Nc1ccc(F)c(Cl)c1)Nc1cc(-c2ccc3cncnc3c2)ccn1 [Compound 4h, 1-(3-Chloro-4-fluorophenyl)-3-(4-(quinazolin-7-yl)pyridin-2-yl)urea]	318 to 321	> 10	> 10	–	–	–
COc1n[nH]c2ccc(-c3ccnc(NC(=O)NCCc4ccccc4F)c3)cc12 [Compound 8j, 1-(2-Fluorophenethyl)-3-(4-(3-methoxy-1H-indazol-5-yl)pyridin-2-yl)urea]	208 to 211	0.75 ± 0.142	> 10	–	–	–
COc1n[nH]c2ccc(-c3ccnc(NC(=O)NC4CCCC4)c3)cc12 [Compound 8g, 1-Cyclopentyl-3-(4-(3-methoxy-1H-indazol-5-yl)pyridin-2-yl)urea]	222 to 225	1.17 ± 0.059	1.25 ± 0.037	–	–	–
COc1n[nH]c2ccc(-c3ccnc(NC(=O)Nc4ccccc4)c3)cc12 [Compound 8a, 1-(4-(3-Methoxy-1H-indazol-5-yl)pyridin-2-yl)-3-phenylurea]	218 to 221	0.06 ± 0.014	1.19 ± 0.035	excellent safety profiles; also recorded: low cytotoxicity	6	–
COc1n[nH]c2ccc(-c3ccnc(NC(=O)NCCc4ccc(F)cc4)c3)cc12 [Compound 8k, 1-(4-Fluorophenethyl)-3-(4-(3-methoxy-1H-indazol-5-yl)pyridin-2-yl)urea]	209 to 212	1.13 ± 0.003	1.38 ± 0.086	–	–	–
O=C(Nc1cccc(C(F)(F)F)c1)Nc1cc(-c2ccc3cncnc3c2)ccn1 [Compound 4f, 1-(4-(Quinazolin-7-yl)pyridin-2-yl)-3-(3-(trifluoromethyl)phenyl)urea]	328 to 331	> 10	> 10	–	–	–
COc1n[nH]c2ccc(-c3ccnc(NC(=O)NCc4ccccc4)c3)cc12 [Compound 8h, 1-Benzyl-3-(4-(3-methoxy-1H-indazol-5-yl)pyridin-2-yl)urea]	230 to 233	0.23 ± 0.015	0.33 ± 0.042	excellent safety profiles; also recorded: low cytotoxicity	–	–
COc1n[nH]c2ccc(-c3ccnc(NC(=O)Nc4ccc(F)c(Cl)c4)c3)cc12 [Compound 8f, 1-(3-Chloro-4-fluorophenyl)-3-(4-(3-methoxy-1H-indazol-5-yl)pyridin-2-yl)urea]	300 to 305	0.89 ± 0.209	0.92 ± 0.114	–	–	–
COc1ccc(NC(=O)Nc2cc(-c3ccc4cncnc4c3)ccn2)cc1 [Compound 4e, 1-(4-Methoxyphenyl)-3-(4-(quinazolin-7-yl)pyridin-2-yl)urea]	–	> 10	> 10	–	–	–
O=C(Nc1cccc(OC(F)(F)F)c1)Nc1cc(-c2ccc3cncnc3c2)ccn1 [Compound 4g, 1-(4-(Quinazolin-7-yl)pyridin-2-yl)-3-(3-(trifluoromethoxy)phenyl)urea]	–	> 10	> 10	–	–	–
C=CCNC(=O)Nc1cc(-c2ccc3cncnc3c2)ccn1 [Compound 4i, 1-Allyl-3-(4-(quinazolin-7-yl)pyridin-2-yl)urea]	190 to 193	3.35 ± 0.101	> 10	–	–	–
O=C(NCCc1ccccc1F)Nc1cc(-c2ccc3cncnc3c2)ccn1 [Compound 4m, 1-(2-Fluorophenethyl)-3-(4-(quinazolin-7-yl)pyridin-2-yl)urea]	272 to 275	> 10	> 10	–	–	–
COc1cccc(NC(=O)Nc2cc(-c3ccc4cncnc4c3)ccn2)c1 [Compound 4d, 1-(3-Methoxyphenyl)-3-(4-(quinazolin-7-yl)pyridin-2-yl)urea]	–	> 10	> 10	–	–	–
CNC(=O)c1cc(Oc2ccc(NC(=O)Nc3ccc(Cl)c(C(F)(F)F)c3)cc2)ccn1 [Sorafenib]	–	–	–	–	–	11.2
O=C(Nc1cc(-c2ccc3cncnc3c2)ccn1)NC1CCCC1 [Compound 4j, 1-Cyclopentyl-3-(4-(quinazolin-7-yl)pyridin-2-yl)urea]	223 to 226	> 10	> 10	–	–	–
O=C(Nc1cccc(F)c1)Nc1cc(-c2ccc3cncnc3c2)ccn1 [Compound 4b, 1-(3-Fluorophenyl)-3-(4-(quinazolin-7-yl)pyridin-2-yl)urea]	–	> 10	> 10	–	–	–
COc1n[nH]c2ccc(-c3ccnc(NC(=O)NCCc4ccccc4)c3)cc12 [Compound 8i, 1-(4-(3-Methoxy-1H-indazol-5-yl)pyridin-2-yl)-3-phenethylurea]	200 to 203	0.16 ± 0.013	1.08 ± 0.006	excellent safety profiles; also recorded: low cytotoxicity	–	–
O=C(NCc1ccccc1)Nc1cc(-c2ccc3cncnc3c2)ccn1 [Compound 4k, 1-Benzyl-3-(4-(quinazolin-7-yl)pyridin-2-yl)urea]	221 to 224	3.03 ± 0.061	> 10	–	–	–
